# pIC50: −log10 of the molar value.
# What was measured:
# [1] = system: 4F-transduced Oct4-GFP MEFs; test: Kinase inhibitor treatment of 4F-transduced Oct4-GFP MEFs, Oct4-GFP+ colony count (reprogramming efficiency); assay type: cell-based, mouse
# Method: MEFs were cultured in DMEM (Invitrogen, 11995-065) with 10% FBS (Invitrogen) plus glutamine and NEAA. Only MEFs at passage of 0 to 4 were used for reprogramming. pMX-Oct4, Sox2, Klf4 and cMyc were purchased from Addgene. […] Viruses were harvested and combined 2 days later. For reprogramming, MEFs were seeded in 12-well plates and transduced with 4F virus the next day with 4 ug/ml Polybrene. One day later, the medium was changed to fresh MEF medium, and 3 days later it was changed to mES culture medium supplemented with LIF (Millipore, ESG1107). GFP+ colonies were picked at day 14 post-transduction, and expanded clones were cultured in DMEM with 15% FBS (Hyclone) plus LIF, thioglycerol, glutamine and NEAA. Irradiated CF1 MEFs served as feeder layers to culture mES cells and derived iPS clones.
# All compounds are well-characterized protein kinase inhibitors. Compounds were diluted to 2 mM in 96-well plates. 4F-transduced cells were seeded into gelatin coated plates (4000 cells/well). Inhibitors were added every other day until day 13. Cells were then fixed with 4% paraformaldehyde for 20 min at room temperature and number of Oct4-GFP+ colonies was directly counted under a microscope. Cells were then stained with Vector red alkaline phosphatase substrate kit I™ (Vector laboratories, SK5100).
# To define signaling mechanisms underlying reprogramming, a double-blind screen of 244 well-characterized cell-permeable protein kinase inhibitors was undertook to identify kinases that enhance or inhibit the process. Mouse embryonic fibroblasts from a transgenic line in which GFP expression is driven by the endogenous Oct4 promoter were chosen as the starting material for a reporter cell line of somatic cell reprogramming. Fully reprogrammed cells switch on endogenous Oct4 expression, making resultant iPS colonies GFP-positive and enabling quantification of reprogramming efficiency. To minimize well-to-well variation, MEFs were first transduced with 4F factors in bulk (FIG. 9A) and then reseeded at 3000 cells/well into gelatin-coated 96-well plates before inhibitor treatment. Starting at day 3 post-transduction, inhibitors were added at a final concentration of 2 μM and media were refreshed every other day with mES culture medium plus inhibitor. At day 13 post-transduction, plates were fixed in 4% paraformaldehyde and GFP-positive colonies were directly quantified microscopically.
# Two columns of wells from each plate (columns 1 and 12) were treated with DMSO (vehicle) only and served as controls.
# GSK3β = test: Western blotting of phospho- and total GSK3β; assay type: cell-based, mouse; details: 4F-infected MEFs
# Method: 4F-infected MEFs were treated with different doses of B6 inhibitor starting at day 3 post-infection for 48 hrs before being harvested for western blotting analysis.
# The experiment was the same as FIG. 5C. Actin served as the loading control.
# 4F-infected MEFs were treated with 1 μM each of Akt inhibitor (Akt X) and B6.
# Membranes were blocked with 5% milk in TBST for at least 1 hr at room temp or overnight at 4° C.
# Aurora A kinase = test: Western blotting of Aurora A kinase protein; assay type: cell-based, mouse; details: wild type and 4F-infected MEFs (B6 1 μM, 2 days); 4F-infected MEFs (MLN8237, 48 hrs)
# Method: FIGS. 13A-13h are a series of graphical representations depicting Aurora A kinase inhibition by B6 promoting Akt mediated inactivation of GSK3β. FIG. 13A is a western blot showing B6 treatment increases aurora A kinase protein levels. Both 4F-infected (day 3) and mock MEFs were treated with 1 μM B6 for 2 days and cells were harvested for western blotting of Aurora A kinase. Actin served as loading control.
# Cells were harvested 48 hrs after drug treatment for western blotting analysis of AurkA protein. Actin serves as loading control.
# Western blotting: Total cell lysates were prepared by incubating cells in MPER buffer (PIERCE, 78503) on ice for 20 min, and then cleared by centrifugation at 13,000 rpm for 10 min. An equal volume of lysates was loaded onto 10% SDS-PAGE gels, and proteins were transferred to PVDF membranes (Bio-Rad, 1620177) using the semi-dry system (Bio-Rad). Membranes were blocked with 5% milk in TBST for at least 1 hr at room temp or overnight at 4° C. Antibodies used include: anti-mNanog (R&D, AF2729), anti-h/mSSEA1 (R&D, MAB2156), anti-Actin (Thermo, MS1295P0), anti-AFP (Abcam, ab7751), anti-Beta III tubulin (R&D systems, MAB1368), and anti-alpha actinin (Sigma, A7811), anti-mAurkA (Bethyl lab, A300-072A), anti-hAurkA (Bethyl lab, A300-071A), total-GSK3β (Cell signaling technology, 9315S), phospho-GSK3β (Cell Signaling Technology, 9323S).
# Aurora A kinase mRNA = test: RT-qPCR of Aurora A kinase mRNA; assay type: cell-based, mouse; details: 4F-infected MEFs, 1 μM, 2 days
# Method: MEFs were infected with 4F for 3 days and treated under mock conditions or with DMSO or 1 μM B6 for 2 days prior to RT-qPCR analysis of total RNA.
# (§1) mRNA quantitative PCR: Total RNAs were extracted using Trizol (Invitrogen). After extraction, 1 ug total RNA was used for RT using Superscript II™ (Invitrogen). Quantitative PCR was performed using a Roche LightCycler480™ II and the Sybr green mixture from Abgene (Ab-4166). Other primers were previously described (Takahashi et al. 2006 Cell 126:663-76).
# 4F-infected MEFs = test: Cell cycle analysis, PI staining and flow cytometry; assay type: cell-based, mouse; details: for cell cycle progression: various concentrations, 48 hr
# Method: FIG. 24A is a series of images of DNA analysis by flow cytometry. 4F-infected MEFs were treated with different concentrations of B6 at day 3 post-infection. Cells were harvested after 48 hr of drug treatment, subjected to PI staining and analyzed for DNA content by flow cytometry.
# FIG. 24B is a series of images of DNA analysis by flow cytometry. […] The experimental procedure was as in FIG. 24A.
# Cell cycle analysis: MEFs or 4F-infected MEFs were treated with inhibitors for two days and then harvested and trypsinized before fixing in 75% ethanol overnight. Cells were centrifuged at 1000 rpm for 5 min, washed once with PBS, and treated with PI staining solution for at least 30 min at room temperature before flow cytometry analysis. ˜20000 events per sample were collected per analysis and cell cycle data was modeled using ModFit™.
# Pdk1, Src, Pten and p85α = test: RT-qPCR of genes upstream of Akt; assay type: cell-based, mouse; details: MEFs transduced with 4F for three days, then 1 μM for two days
# Method: FIG. 22, is a graph plotting relative mRNA levels in MEFs. […] MEFs were first transduced with 4F for three days and then treated for another two days with DMSO or 1 μM B6. Total RNAs were harvested and analyzed for indicated factors, which reportedly function upstream of Akt.
# as §1
# mES cells = test: mES cell self-renewal and differentiation in LIF+ and LIF− conditions; assay type: cell-based, mouse; details: 0.5 μM and 1 μM, 4 days
# From the text: Cells were harvested for RNA extraction and RT-qPCR of indicated mES self-renewal genes.
# LIF withdrawal in both B6-treated and DMSO control cells promoted mES cell differentiation, as indicated by loss of colonies, based on morphology and AP staining (data not shown).
# Cdk2/E = Cdk2/E (Homo sapiens, UniProt P24941); details: read-out: Potential Targets: Cdk2/E, IC50; cited from earlier work
# Cdk1/B = Cdk1/B (Homo sapiens, UniProt P06493); details: read-out: Potential Targets: Cdk1/B, IC50; cited from earlier work
# Cdk3/E = Cdk3/E (Homo sapiens, UniProt Q00526); details: read-out: Potential Targets: Cdk3/E, IC50; cited from earlier work
# Cdk5/p35 = Cdk5/p35 (Homo sapiens, UniProt Q00535); details: read-out: Potential Targets: Cdk5/p35, IC50; cited from earlier work
# Cdk7/H/MAT1 = Cdk7/H/MAT1 (Homo sapiens, UniProt P50613); details: read-out: Potential Targets: Cdk7/H/MAT1, IC50; cited from earlier work
# Lck = Lck (Homo sapiens, UniProt P06239); details: kind of value not given; cited from earlier work
# PKCα = PKCα (Homo sapiens, UniProt P17252); details: kind of value not given; cited from earlier work
# PKCβ = PKCβ (Homo sapiens, UniProt P05771); details: kind of value not given; cited from earlier work
# PKCγ = PKCγ (Homo sapiens, UniProt P05129); details: kind of value not given; cited from earlier work
# PKCδ = PKCδ (Homo sapiens, UniProt Q05655); details: kind of value not given; cited from earlier work
# Chk1 = Chk1 (Homo sapiens, UniProt O14757); details: kind of value not given; cited from earlier work
# [2] = biological target: Cdc25C-associated protein kinase 1 (Homo sapiens, UniProt P27448); details: kind of value not given; cited from earlier work
# Cdk1 = Cdk1 (Homo sapiens, UniProt P06493); details: kind of value not given; cited from earlier work
# PAK4 = PAK4 (Homo sapiens, UniProt O96013); details: kind of value not given; cited from earlier work
# Cdk5/p25 = Cdk5/p25 (Homo sapiens, UniProt Q00535); details: kind of value not given; cited from earlier work
# Chk2 = Chk2 (Homo sapiens, UniProt O96017); details: kind of value not given; cited from earlier work
# PDK1 = PDK1 (Homo sapiens, UniProt O15530); details: kind of value not given; cited from earlier work
# MAPKAP kinase-2 = MAPKAP kinase-2 (Homo sapiens, UniProt P49137); details: kind of value not given; cited from earlier work
# MEK1 = MEK1 (Homo sapiens, UniProt Q02750); details: kind of value not given; cited from earlier work
# myosin II heavy chain = details: kind of value not given; cited from earlier work
# Nanog, Tet1 and Eras = test: RT-qPCR of mES-specific genes in 4F-transduced MEFs; assay type: cell-based, mouse; details: day 14 post transduction
# Method: Data is derived from analysis of three independent wells. FIG. 23B is a histogram of relative mRNA level. […] Cells were harvested at day 14 post 4F transduction. […] Shown are data derived from three independent wells.
# as §1
# Chain of MEK1 (Q02750 whole entry, species assumed): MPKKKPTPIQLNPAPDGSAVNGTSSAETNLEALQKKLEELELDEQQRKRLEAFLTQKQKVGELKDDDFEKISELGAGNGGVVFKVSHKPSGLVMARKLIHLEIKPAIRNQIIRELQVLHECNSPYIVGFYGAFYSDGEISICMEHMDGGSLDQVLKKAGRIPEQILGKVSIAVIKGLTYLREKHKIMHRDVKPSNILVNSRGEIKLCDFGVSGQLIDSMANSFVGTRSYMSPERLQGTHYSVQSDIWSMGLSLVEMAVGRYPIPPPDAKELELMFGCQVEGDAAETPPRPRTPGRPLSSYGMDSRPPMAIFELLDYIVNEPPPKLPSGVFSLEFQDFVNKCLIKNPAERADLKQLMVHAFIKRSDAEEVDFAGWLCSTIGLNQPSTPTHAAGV
# Chain of PDK1 (O15530 whole entry): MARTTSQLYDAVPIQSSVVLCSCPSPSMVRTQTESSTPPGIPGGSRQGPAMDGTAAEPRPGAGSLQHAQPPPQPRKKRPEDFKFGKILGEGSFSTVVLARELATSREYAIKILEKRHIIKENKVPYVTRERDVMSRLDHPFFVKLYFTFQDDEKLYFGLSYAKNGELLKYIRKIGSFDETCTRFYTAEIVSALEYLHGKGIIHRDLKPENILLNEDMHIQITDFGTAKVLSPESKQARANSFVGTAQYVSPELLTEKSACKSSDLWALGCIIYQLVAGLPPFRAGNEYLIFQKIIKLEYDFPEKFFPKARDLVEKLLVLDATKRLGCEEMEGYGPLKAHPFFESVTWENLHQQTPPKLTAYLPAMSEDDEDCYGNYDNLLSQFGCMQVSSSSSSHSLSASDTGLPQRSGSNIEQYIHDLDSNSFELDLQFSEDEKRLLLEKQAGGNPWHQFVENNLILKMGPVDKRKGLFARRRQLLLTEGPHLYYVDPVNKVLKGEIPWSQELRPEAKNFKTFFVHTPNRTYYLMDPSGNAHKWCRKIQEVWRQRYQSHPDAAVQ
# Chain of Chk1 (O14757 whole entry, species assumed): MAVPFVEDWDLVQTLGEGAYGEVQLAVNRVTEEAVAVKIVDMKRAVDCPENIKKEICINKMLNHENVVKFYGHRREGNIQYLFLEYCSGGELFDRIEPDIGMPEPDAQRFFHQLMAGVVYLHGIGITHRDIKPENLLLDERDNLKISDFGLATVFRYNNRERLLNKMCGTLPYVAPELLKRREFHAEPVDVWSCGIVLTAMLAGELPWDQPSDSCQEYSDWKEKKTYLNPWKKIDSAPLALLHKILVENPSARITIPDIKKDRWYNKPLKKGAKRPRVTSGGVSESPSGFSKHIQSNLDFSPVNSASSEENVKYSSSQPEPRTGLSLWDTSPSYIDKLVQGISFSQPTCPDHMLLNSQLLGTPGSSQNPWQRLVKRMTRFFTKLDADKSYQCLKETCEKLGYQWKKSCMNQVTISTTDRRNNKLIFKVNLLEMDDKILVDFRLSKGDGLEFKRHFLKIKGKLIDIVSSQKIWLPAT
# Chain of Chk2 (O96017 whole entry, species assumed): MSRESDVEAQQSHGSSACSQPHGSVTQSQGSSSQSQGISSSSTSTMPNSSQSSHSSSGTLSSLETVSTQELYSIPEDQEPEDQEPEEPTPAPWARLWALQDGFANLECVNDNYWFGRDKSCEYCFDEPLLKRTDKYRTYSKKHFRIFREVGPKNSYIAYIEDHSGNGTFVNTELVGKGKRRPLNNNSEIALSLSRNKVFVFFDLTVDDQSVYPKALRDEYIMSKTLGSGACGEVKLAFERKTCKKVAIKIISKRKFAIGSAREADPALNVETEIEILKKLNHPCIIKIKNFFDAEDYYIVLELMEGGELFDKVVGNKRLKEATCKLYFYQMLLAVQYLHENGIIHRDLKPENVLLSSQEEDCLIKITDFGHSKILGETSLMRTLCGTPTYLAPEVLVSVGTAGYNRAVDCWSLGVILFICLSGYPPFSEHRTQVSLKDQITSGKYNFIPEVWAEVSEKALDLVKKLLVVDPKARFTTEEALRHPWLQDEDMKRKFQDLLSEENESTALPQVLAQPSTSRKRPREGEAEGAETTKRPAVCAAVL
# Chain of PKCδ (Q05655 whole entry): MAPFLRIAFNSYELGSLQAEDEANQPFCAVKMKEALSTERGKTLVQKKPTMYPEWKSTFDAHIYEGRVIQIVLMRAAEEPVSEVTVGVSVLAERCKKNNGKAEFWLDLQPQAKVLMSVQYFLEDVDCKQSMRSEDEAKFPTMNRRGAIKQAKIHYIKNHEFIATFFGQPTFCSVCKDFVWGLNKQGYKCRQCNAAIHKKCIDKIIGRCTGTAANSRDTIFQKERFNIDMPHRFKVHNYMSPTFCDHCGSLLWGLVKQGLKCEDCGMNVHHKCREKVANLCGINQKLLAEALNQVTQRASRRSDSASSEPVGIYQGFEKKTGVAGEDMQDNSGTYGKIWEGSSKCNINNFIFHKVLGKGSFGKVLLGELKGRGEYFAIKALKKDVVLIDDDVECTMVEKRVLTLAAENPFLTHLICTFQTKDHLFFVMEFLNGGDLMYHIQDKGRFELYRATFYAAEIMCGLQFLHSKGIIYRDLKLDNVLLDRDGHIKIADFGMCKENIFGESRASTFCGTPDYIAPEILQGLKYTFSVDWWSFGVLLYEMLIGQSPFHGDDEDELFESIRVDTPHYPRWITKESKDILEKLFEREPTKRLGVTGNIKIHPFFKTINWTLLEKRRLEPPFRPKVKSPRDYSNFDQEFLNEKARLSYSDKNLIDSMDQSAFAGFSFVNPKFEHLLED
# Chain of PAK4 (O96013 whole entry, species assumed): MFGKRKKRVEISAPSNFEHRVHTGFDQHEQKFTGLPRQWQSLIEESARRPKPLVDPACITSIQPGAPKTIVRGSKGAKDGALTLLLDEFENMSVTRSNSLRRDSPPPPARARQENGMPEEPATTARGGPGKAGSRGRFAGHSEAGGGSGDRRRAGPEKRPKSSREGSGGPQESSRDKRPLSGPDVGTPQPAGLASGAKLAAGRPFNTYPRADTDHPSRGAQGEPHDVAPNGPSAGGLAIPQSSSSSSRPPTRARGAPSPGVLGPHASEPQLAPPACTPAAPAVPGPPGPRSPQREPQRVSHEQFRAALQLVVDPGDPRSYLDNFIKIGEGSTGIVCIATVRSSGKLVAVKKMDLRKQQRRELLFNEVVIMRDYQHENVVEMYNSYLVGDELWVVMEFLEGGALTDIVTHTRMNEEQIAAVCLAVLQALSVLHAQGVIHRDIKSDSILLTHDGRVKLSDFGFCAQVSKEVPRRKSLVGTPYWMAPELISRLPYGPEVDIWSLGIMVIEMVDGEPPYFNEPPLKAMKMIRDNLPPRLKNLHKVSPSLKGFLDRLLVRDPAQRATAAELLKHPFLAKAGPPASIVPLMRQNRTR
# Chain of Cdk7/H/MAT1 (P50613 whole entry, species assumed): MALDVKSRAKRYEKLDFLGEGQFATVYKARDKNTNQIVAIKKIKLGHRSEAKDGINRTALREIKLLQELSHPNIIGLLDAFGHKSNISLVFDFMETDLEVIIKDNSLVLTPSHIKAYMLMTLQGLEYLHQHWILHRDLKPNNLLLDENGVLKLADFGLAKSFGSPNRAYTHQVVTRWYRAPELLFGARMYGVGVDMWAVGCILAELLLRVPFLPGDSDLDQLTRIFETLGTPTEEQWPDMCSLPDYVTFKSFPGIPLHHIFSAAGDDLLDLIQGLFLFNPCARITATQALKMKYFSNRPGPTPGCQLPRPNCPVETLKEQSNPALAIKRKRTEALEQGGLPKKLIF
# Chain of Cdk7/H/MAT1 (P51946 whole entry partner, species assumed): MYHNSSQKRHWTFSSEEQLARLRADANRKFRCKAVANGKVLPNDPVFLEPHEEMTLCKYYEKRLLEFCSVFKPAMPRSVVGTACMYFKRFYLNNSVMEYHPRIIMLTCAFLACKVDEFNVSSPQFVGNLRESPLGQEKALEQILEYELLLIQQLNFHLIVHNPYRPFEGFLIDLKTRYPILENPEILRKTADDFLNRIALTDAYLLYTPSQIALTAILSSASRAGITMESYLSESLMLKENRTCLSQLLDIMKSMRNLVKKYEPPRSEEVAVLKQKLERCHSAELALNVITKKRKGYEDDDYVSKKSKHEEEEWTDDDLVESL
# Chain of Cdk7/H/MAT1 (P51948 whole entry partner, species assumed): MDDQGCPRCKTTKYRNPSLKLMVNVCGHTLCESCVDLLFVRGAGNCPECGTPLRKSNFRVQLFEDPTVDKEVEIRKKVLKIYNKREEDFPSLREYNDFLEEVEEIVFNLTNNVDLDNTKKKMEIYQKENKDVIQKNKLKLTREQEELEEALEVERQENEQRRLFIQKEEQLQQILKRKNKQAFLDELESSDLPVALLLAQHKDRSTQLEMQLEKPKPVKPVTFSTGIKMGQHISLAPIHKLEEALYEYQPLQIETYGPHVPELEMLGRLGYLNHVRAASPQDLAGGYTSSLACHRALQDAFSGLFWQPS
# Chain of PKCβ (P05771 whole entry, species assumed): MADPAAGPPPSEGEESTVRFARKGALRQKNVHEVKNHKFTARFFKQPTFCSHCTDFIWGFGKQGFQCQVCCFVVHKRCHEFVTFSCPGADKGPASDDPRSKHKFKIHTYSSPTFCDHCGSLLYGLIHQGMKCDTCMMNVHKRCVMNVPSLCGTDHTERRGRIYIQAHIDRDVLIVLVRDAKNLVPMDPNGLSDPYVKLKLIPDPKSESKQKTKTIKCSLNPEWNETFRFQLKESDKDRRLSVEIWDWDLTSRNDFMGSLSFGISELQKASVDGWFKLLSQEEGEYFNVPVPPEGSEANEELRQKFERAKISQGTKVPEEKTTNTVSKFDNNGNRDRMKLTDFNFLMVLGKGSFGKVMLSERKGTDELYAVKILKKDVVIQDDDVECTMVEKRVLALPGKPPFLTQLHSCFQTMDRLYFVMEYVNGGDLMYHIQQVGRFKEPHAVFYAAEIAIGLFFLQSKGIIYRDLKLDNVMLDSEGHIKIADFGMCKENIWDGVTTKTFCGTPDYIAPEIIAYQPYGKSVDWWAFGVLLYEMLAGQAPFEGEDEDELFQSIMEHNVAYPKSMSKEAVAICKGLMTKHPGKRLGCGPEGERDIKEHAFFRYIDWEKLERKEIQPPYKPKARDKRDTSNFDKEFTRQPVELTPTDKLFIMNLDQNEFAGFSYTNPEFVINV
smiles,measurement,setting,value
O=C(Nc1cccc(Nc2nccc(Nc3cccc(C(F)(F)F)c3)n2)c1)C1CC1 [BIM-0086660],"reprogramming, Oct4-GFP+ colonies, dose/response","[1]; 0.5 μM, drug from day 3, colonies at day 13",potent enhancers
same,"reprogramming, Oct4-GFP+ colonies","[1]; secondary screen, 1 μM, vs DMSO",enhanced reprogramming more robustly at 1 μM than at 2 μM
same,GSK3β total protein levels,GSK3β; 48 hrs,unchanged
same,phospho-GSK3β,GSK3β; different doses from day 3 post-infection for 48 hrs,significant increase in phospho-GSK3β
same,AurkA protein levels,Aurora A kinase,increased AurkA protein levels relative to untreated cells
same,AurkA mRNA levels,Aurora A kinase mRNA,not significantly altered
same,cell cycle progression,4F-infected MEFs,little change in cell cycle progression
same,"expression levels of genes upstream of Akt (Pdk1, Src, Pten, p85α)","Pdk1, Src, Pten and p85α",significant changes were not observed
same,Oct4 expression in mES cells,mES cells,very small increase
same,mES self-renewal or differentiation,mES cells; LIF+ and LIF−,a significant effect on either mES self-renewal (in the presence of LIF) or differentiation (following LIF withdrawal) was not seen
CC(C)c1nn(-c2c(Cl)cccc2Cl)c2nc(Cc3ccc(OCCO)cc3)[nH]c(=O)c12 [BIM-0086744],pIC50,Cdk2/E,8.05
same,pIC50,Cdk1/B,7.32
same,pIC50,Cdk3/E,8.00
same,pIC50,Cdk5/p35,7.15
same,pIC50,Cdk7/H/MAT1,8.05
"CN[C@@H]1C[C@H]2O[C@@](C)([C@@H]1OC)n1c3ccccc3c3c4c(c5c6ccccc6n2c5c31)C(=O)N[C@@H]4O [BIM-0207189, UCN-01]",Potential Targets: Lck,Lck,50 nM
same,Potential Targets: PKCα,PKCα,9 nM
same,Potential Targets: PKCβ,PKCβ,34 nM
same,Potential Targets: PKCγ,PKCγ,30 nM
same,Potential Targets: PKCδ,PKCδ,590 nM
same,Potential Targets: Chk1,Chk1,7 nM
same,Potential Targets: Cdc25C-associated protein kinase 1,[2],27 nM
same,Potential Targets: Cdk1,Cdk1,50 nM
same,Potential Targets: PAK4,PAK4,50 nM
same,Potential Targets: Cdk5/p25,Cdk5/p25,150 nM
same,Potential Targets: Chk2,Chk2,"1.04 μM for Chk1, Cdc25C-"
same,Potential Targets: PDK1,PDK1,33 nM
same,Potential Targets: MAPKAP kinase-2,MAPKAP kinase-2,95 nM
"c1nc2nc(Nc3ccc(N4CCOCC4)cc3)nc(NC3CCCCC3)c2[nH]1 [BIM-0207192, Reversine]",Potential Targets: MEK1,MEK1,"MEK1 (8 nM), myosin II heavy"
same,Potential Targets: myosin II heavy chain,myosin II heavy chain,"chain (10 nM), Aurora kinases"
COc1cc(Nc2ncc3c(n2)-c2ccc(Cl)cc2C(c2c(F)cccc2OC)=NC3)ccc1C(=O)O [MLN8237],enhancement of reprogramming,"[1]; 10 nM, from day 3 for 10 days",approximately 4 fold
same,number of GFP+ colonies,[1]; 100 nM,significant increase in the number of GFP+ colonies
same,AurkA protein levels,Aurora A kinase,Increased AurkA protein levels
same,cell cycle,4F-infected MEFs; 10 nM,did not alter the cell cycle
same,number of cells in G2,4F-infected MEFs; 100 nM,increased the number of cells in G2
same,cell cycle progression,4F-infected MEFs,little change in cell cycle progression
same,mES-specific gene expression,"Nanog, Tet1 and Eras",increases in mES-specific gene expression

# Reference: patent US9957484B2, “Methods for promoting cell reprogramming” (Sanford-Burnham Medical Research Institute, priority 2011, dated 2018)
